Reference: patent US20100099917A1, “Integrin modulators and methods for their use” (Billings Pharmaceuticals, Inc., priority 2004, published 2010)

Assays:
[1] = tested on: HIV-1RF-infected H9 cells; experiment: Inhibition of HIV-induced syncytium formation (uninfected H9 cells with HIV-1RF-infected H9 cells); type: cell-based; conditions: for IC100 of syncytium formation: H9 + HIV-1RF-infected H9 cells, 6 to 15 hours at 37° C.
Protocol: The purified enantiomers were taken up in DMSO at a concentration of 10 mg/mL. Dilutions were made in RPMI 1640 medium containing 10% fetal calf serum and 10 mM HEPES (cRPMI). H9 cells (ATCC, Rockville, Md.) infected with HIV-1RF (NIH AIDS Repository, Rockville, Md.) and uninfected H9 cells were washed with cRPMI and resuspended in cRPMI at a density of 4×10^6 per mL. Uninfected cells (50 μL) were mixed with serial dilutions of the compounds (100 μL) and incubated at 37° C. for 30 min before adding and mixing 50 μL of infected H9 cells. The plates were incubated at 37° C. for 6 to 15 hours before scoring syncytium formation.
For all the curves, the effect of ajoene enantiomers and enantiomer mixtures on the fusion of cultured, intact H9 cells with HIV-1RF-infected H9 cells is disclosed. The vertical graph axis expresses the maximum amount of syncytia formed in the absence of the compounds (100 percent), while the points on the curves represent percentages of such an amount of syncytia formed in the presence of varying concentrations of the compounds and compound mixtures (micromoles per liter).

VLA-4 = target: T1, VLA-4 (Homo sapiens, UniProt P05556+P13612); experiment: Inhibition of VLA-4-mediated adhesion of HRP-labeled PMI cells to VCAM-1-coated substrata; type: cell-based
T1 construct: VLA-4-mediated adhesion of enzyme-labeled PM1 cells to VCAM-1-coated artificial substrata; host or cells: PM1 (printed 'PMI') cells
T1 sequence (P13612 34-1032): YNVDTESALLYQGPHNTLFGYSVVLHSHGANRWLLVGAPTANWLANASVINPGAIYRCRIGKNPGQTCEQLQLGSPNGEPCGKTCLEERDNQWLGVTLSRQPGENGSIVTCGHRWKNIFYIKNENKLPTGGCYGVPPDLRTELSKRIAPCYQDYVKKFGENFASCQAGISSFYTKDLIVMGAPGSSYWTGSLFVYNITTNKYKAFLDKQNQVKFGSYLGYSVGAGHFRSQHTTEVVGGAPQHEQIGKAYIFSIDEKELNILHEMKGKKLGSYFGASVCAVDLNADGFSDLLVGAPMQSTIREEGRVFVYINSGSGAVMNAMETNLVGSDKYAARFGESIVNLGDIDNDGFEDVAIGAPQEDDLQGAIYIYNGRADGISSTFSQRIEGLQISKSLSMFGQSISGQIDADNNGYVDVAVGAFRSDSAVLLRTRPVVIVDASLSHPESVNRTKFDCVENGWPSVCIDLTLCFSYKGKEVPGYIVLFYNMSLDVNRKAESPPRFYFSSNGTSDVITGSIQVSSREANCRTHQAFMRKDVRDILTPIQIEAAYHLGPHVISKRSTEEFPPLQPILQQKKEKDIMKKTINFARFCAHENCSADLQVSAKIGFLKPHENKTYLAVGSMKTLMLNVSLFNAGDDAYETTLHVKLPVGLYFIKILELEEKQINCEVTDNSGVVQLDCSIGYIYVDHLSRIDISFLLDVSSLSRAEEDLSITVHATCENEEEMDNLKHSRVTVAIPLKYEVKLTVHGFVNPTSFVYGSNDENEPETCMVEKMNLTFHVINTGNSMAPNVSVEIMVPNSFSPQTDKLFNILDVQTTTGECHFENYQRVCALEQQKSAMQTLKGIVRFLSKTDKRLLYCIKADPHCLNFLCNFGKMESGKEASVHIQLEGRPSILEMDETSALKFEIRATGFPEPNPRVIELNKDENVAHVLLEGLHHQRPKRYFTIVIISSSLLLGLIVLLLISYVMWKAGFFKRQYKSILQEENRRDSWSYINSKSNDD
T1 sequence (P05556 21-798): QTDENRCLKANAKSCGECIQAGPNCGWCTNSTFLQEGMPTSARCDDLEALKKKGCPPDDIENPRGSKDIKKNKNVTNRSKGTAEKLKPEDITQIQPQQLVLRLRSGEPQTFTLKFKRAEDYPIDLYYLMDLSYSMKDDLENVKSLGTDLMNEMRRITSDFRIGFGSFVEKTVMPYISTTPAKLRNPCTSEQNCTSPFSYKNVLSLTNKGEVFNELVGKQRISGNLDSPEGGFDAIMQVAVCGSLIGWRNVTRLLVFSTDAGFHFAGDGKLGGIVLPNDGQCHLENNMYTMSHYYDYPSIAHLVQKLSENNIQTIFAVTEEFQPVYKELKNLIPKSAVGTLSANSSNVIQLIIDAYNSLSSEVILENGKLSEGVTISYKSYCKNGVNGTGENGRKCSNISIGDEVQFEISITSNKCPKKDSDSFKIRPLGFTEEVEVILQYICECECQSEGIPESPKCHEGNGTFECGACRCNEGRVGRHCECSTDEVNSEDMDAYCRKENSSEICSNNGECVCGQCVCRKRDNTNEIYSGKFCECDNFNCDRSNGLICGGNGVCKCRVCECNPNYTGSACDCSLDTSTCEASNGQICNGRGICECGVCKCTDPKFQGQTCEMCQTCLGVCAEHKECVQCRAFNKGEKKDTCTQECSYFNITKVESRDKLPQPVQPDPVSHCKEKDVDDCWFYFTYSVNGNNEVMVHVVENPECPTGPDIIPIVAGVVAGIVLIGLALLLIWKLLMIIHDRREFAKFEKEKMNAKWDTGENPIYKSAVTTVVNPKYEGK
Protocol: In addition, the present invention provides methods whereby the integrin-modulating activity of DDCs may be assessed. One such method involves VLA-4-mediated adhesion of enzyme-labeled PM1 cells to VCAM-1-coated artificial substrata. Specifically, the cells are exposed to isolated DDC enantiomers (or the vehicle thereof) and allowed to adhere or not adhere to immobilized VCAM-1. Thereafter, the adherent cells are lysed and, following addition of the substrate of the enzyme and incubation, the activity of the enzyme is measured spectrophotometrically. The value of this parameter, characterizing the number of the adherent cells, is inversely proportional to integrin-modulating activity of the compound. Another such method is based on the inhibition of HIV-mediated syncytium formation, a phenomenon known to depend on integrin-mediated functions. Yet another method is based on the inhibition of cell-to-cell HIV transmission, a process also dependent on integrin-mediated functions. Modulating activity of integrin-mediated functions by the enantiomers was compared in a well-defined system of inhibition of VLA-4-mediated adhesion of enzyme-labeled PMI cells (NIH AIDS Repository, Rockville, Md.) to VCAM-1-coated artificial substrata. […] The reaction was stopped with 0.5 M H2SO4, and the optical density of the wells was read at 450 nm. […]

[2] = tested on: U937 cells infected with HIV-1 RT; experiment: Inhibition of syncytium formation (MT2 cells with HIV-1 RT-infected U937 cells); type: cell-based; conditions: MT2 + HIV-1 RT-infected U937 cells, 13 hours
[3] = tested on: adhesion-dependent processes; conditions: mixtures of E- and Z-isomers; cited from earlier work
[4] = target: platelet integrin, GP IIb/IIIa (Homo sapiens, UniProt P05106+P08514); conditions: allosteric inactivation of GP IIb/IIIa; cited from earlier work
platelet integrin, GP IIb/IIIa, sequence (P08514 32-887 limits assumed): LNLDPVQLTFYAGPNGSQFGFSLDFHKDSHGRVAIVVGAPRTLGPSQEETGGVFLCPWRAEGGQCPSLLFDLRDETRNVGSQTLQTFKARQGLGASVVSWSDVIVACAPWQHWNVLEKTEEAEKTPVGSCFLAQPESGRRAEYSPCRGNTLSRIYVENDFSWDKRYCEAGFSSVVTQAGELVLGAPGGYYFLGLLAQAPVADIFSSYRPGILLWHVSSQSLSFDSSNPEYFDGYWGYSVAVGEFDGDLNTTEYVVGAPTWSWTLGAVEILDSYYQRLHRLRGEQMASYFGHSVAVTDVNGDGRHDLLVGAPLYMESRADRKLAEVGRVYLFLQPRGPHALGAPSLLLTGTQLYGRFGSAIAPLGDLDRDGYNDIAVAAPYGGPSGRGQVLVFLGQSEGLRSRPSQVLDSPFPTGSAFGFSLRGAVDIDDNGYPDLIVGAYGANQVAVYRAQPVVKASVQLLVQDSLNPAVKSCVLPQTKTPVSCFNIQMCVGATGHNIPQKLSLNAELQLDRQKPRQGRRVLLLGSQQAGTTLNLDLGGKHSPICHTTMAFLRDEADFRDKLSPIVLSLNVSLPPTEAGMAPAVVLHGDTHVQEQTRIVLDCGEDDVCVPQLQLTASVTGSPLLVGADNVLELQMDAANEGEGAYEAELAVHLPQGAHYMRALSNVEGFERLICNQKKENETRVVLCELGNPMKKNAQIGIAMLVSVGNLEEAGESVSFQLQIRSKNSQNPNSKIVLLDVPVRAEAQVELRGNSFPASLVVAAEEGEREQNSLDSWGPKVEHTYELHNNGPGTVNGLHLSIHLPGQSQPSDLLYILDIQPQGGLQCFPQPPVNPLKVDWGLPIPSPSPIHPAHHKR
platelet integrin, GP IIb/IIIa, sequence (P08514 891-1039 limits assumed): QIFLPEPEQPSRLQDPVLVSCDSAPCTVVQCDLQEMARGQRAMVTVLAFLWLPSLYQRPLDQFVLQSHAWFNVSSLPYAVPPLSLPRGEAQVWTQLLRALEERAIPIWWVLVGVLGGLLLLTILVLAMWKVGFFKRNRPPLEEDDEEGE
platelet integrin, GP IIb/IIIa, sequence (P05106 27-788): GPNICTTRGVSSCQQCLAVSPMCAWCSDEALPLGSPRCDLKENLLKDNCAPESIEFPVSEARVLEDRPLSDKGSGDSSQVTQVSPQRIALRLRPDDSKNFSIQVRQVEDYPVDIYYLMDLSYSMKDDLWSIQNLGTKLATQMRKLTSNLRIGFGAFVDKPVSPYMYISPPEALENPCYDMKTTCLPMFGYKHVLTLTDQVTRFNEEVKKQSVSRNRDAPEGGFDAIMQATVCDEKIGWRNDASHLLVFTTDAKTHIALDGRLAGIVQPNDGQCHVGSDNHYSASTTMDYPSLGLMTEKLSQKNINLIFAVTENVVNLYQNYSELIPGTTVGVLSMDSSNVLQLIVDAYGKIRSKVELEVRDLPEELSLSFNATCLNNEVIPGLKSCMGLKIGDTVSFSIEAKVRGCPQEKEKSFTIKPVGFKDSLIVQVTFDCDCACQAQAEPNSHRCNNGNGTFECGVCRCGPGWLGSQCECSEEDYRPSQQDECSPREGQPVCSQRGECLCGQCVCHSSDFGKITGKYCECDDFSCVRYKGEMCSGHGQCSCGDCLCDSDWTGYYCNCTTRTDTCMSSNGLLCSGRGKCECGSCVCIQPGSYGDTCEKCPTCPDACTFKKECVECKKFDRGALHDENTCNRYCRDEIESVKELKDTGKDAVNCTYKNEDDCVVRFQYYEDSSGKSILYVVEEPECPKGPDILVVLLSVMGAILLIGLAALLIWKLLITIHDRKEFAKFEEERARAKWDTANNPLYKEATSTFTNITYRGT

For `C=CCSS/C=C/C[S+]([O-])CC=C` (racemic) [racemic (E)-ajoene, reference compound], the “IC100 of syncytium formation” value [1] was 50 micromoles per liter.
With `C=CCSS/C=C\C[S+]([O-])CC=C` (stereo not drawn) [(Z)-(+) counterpart] the “IC100 of syncytium formation” value [1] was 50 micromoles per liter.
For `C=CCSS/C=C\C[S+]([O-])CC=C` (stereo not drawn) [(Z)-(−)-enantiomer, (Z)-(−)-4,5,9-trithiadodeca-1,6,11-triene-9-oxide], the “adhesion-inhibiting activity, fold higher than any other enantiomer of the original 3:1 mixture” value (VLA-4; PMI cells on VCAM-1, optical density read at 450 nm) was 4 fold, the “activity compared with the parent racemates (E-, Z-ajoenes and mixtures)” value (VLA-4; conclusion from Examples 2 and 3 taken together) was “significantly higher” and the “syncytium formation inhibition, result compared with the H9 system” value [2] was “A similar result was obtained”. The “IC100 of syncytium formation” value [1] was 12.5 micromoles per liter, the “activity as an integrin modulator relative to other enantiomers, racemic E-ajoene or the unseparated 3:1 mixture” value ([1]; summary statement in the description, covers Examples 2 and 3) was “at least four times more active” and the “activity relative to (Z)-(+) counterpart, racemic (E)-ajoene or the unseparated 3:1 mixture” value ([1]; syncytium formation, FIG. 1 curves) was “at least four times more active”.
For `C=CCSS/C=C/C[S+]([O-])CC=C` (stereo not shown) [ajoene, 4,5,9-trithiadodeca-1,6,11-triene-9-oxide], the “inhibition of adhesion-dependent processes” value [3] is given as “potent inhibitor” and the “effect on platelet aggregation” value [4] is given as “inhibit platelet aggregation”.
